# From ChEMBL document CHEMBL1781956, “Design, synthesis and insulin-sensitizing activity of indomethacin and diclofenac derivatives” (Bioorg Med Chem Lett, 2009)
# Activity calls are given as the source filed them. The rule behind the calls is not given here.
# Tests used:
# Type in all cases: functional
# 3T3-L1 [1] = test: Insulin sensitizing activity in mouse 3T3L1 cells assessed as triglyceride accumulation at 1 uM by insulin-regulated cell differentiation assay relative to rosiglitazone
# 3T3-L1 [2] = test: Insulin sensitizing activity in mouse 3T3L1 cells assessed as triglyceride accumulation by insulin-regulated cell differentiation assay
# [3] = target: T1, Peroxisome proliferator-activated receptor gamma (Homo sapiens, UniProt P37231); test: Agonist activity at human PPARgamma in human U2OS cells by cell based transactivation assay
# T1 sequence (P37231 whole entry): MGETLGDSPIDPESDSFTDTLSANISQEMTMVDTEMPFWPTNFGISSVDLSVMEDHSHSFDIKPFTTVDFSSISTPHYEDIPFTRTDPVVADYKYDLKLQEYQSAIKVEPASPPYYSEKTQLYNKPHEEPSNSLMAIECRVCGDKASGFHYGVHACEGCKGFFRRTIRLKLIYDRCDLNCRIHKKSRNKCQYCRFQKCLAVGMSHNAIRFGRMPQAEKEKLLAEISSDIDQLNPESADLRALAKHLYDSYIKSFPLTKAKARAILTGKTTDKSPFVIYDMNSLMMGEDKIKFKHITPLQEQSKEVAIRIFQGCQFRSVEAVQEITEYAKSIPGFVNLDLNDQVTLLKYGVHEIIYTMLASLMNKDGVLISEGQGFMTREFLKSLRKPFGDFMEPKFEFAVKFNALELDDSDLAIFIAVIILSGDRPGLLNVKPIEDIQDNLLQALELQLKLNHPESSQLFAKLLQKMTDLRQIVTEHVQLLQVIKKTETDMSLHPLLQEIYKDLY
# [4] = target: T2, Peroxisome proliferator-activated receptor gamma (Homo sapiens) (UniProt P37231); test: Agonist activity at human PPARgamma in human U2OS cells by cell based transactivation assay relative to rosiglitazone
# T2 sequence (whole entry): T1 sequence (P37231 whole entry)
Structure (SMILES),Activity (3T3-L1 [1]),EC30 (3T3-L1 [2]),EC50 ([3]; u2os),Emax [4],EC50 [3]
COC(=O)Cc1c(C)n(C(=O)c2ccc(Cl)cc2)c2ccc(OCCc3nc(-c4cccc(OC)c4)oc3C)cc12,85%,3.16 ×10⁻⁷ M,,,
Cc1c(CC(=O)O)c2cc(OCc3ccccc3)ccc2n1C(=O)c1ccc(Cl)cc1,126%,9.51 ×10⁻⁹ M,Not Active,inactive,
COC(=O)Cc1c(C)n(C(=O)c2ccc(Cl)cc2)c2ccc(OCc3ccccc3)cc12,134%,6.56 ×10⁻⁹ M,Not Active,inactive,
CN(CCOc1ccc(CC2SC(=O)NC2=O)cc1)c1ccccn1 (centres undefined) [ROSIGLITAZONE],100%,1.05 ×10⁻⁷ M,,,
CCc1ccc(CCOc2ccc3c(c2)c(CC(=O)O)c(C)n3C(=O)c2ccc(Cl)cc2)nc1,42%,5.89 ×10⁻⁶ M,,,
COC(=O)Cc1c(C)n(C(=O)c2ccc(Cl)cc2)c2ccc(OCCc3nc(-c4ccc(-c5ccccc5)cc4)oc3C)cc12,138%,1.23 ×10⁻⁸ M,,141%,20 nM
COC(=O)Cc1c(C)n(C(=O)c2ccc(Cl)cc2)c2ccc(OCCN3COc4ccccc4C3=O)cc12,47%,,,,
COC(=O)Cc1c(C)n(C(=O)c2ccc(Cl)cc2)c2ccc(OCCc3nc(-c4ccccc4)oc3C)cc12,80%,2.75 ×10⁻⁷ M,,74%,620 nM
Cc1c(CC(=O)O)c2cc(OCCN3COc4ccccc4C3=O)ccc2n1C(=O)c1ccc(Cl)cc1,41%,,,,
COC(=O)Cc1c(C)n(C(=O)c2ccc(Cl)cc2)c2ccc(OCCc3nc(-c4ccc(Cl)cc4)oc3C)cc12,57%,2 ×10⁻⁶ M,,,
Cc1c(CC(=O)O)c2cc(OCCN3CCOCC3)ccc2n1C(=O)c1ccc(Cl)cc1,36%,,,,
CC(C)=CCC/C(C)=C/CC/C(C)=C/CCCOc1ccc2c(c1)c(CC(=O)O)c(C)n2C(=O)c1ccc(Cl)cc1,74%,6.92 ×10⁻⁷ M,,,
O=C(O)Cc1ccc(OCc2ccccc2)cc1Nc1c(Cl)cccc1Cl,98%,2.51 ×10⁻⁷ M,,35%,
COC(=O)Cc1c(C)n(C(=O)c2ccc(Cl)cc2)c2ccc(OCCN3CCOCC3)cc12,42%,,,,
COc1cccc(-c2nc(CCOc3ccc4c(c3)c(CC(=O)O)c(C)n4C(=O)c3ccc(Cl)cc3)c(C)o2)c1,76%,3.75 ×10⁻⁷ M,,,
Cc1oc(-c2ccc(-c3ccccc3)cc2)nc1CCOc1ccc2c(c1)c(CC(=O)O)c(C)n2C(=O)c1ccc(Cl)cc1,129%,3.31 ×10⁻⁸ M,,134%,40 nM
Cc1c(CC(=O)O)c2cc(OCCN3CCCCC3)ccc2n1C(=O)c1ccc(Cl)cc1,30%,,,,
Cc1oc(-c2ccccc2)nc1CCOc1ccc2c(c1)c(CC(=O)O)c(C)n2C(=O)c1ccc(Cl)cc1,36%,6.17 ×10⁻⁶ M,,79%,
Cc1oc(-c2ccc(Cl)cc2)nc1CCOc1ccc2c(c1)c(CC(=O)O)c(C)n2C(=O)c1ccc(Cl)cc1,38%,,,,
COC(=O)Cc1c(C)n(C(=O)c2ccc(Cl)cc2)c2ccc(OCCC/C=C(\C)CC/C=C(\C)CCC=C(C)C)cc12,81%,2.88 ×10⁻⁷ M,,,
COC(=O)Cc1c(C)n(C(=O)c2ccc(Cl)cc2)c2ccc(OCCN3CCCCC3)cc12,33%,,,,
CCc1ccc(CCOc2ccc3c(c2)c(CC(=O)OC)c(C)n3C(=O)c2ccc(Cl)cc2)nc1,50%,1.7 ×10⁻⁶ M,,,
